{
  "source": "patent EP0187619A2",
  "about": "“1,3-Disubstituted tetrahydropyridines” (priority 1985, dated 1986)",
  "key": {"[1]": {"system": "amnesiogene Wirkung eines Elektroschocks", "assay": "Two-compartment test: protection against electroshock-induced amnesia", "type": "in vivo, Maus", "conditions": "for antiamnesiogener Effekt: significance by Mann-Whitney U test", "procedure": "So vermindern sie an der Maus in Dosen ab etwa 0,1 mg/kg i.p. sowie p.o. die amnesiogene Wirkung eines Elektroschocks in mindestens gleichem Ausmass wie nach Verabfolgung einer nootrop wirksamen Dosis von Piracetam (100 mg/kg i.p.). Zum Nachweis der nootropen Wirkung kann beispielsweise der Two-Compartment-Test herangezogen werden.\nAls Literatur über pharmakologische Modelle dieser Art seien z.B. genannt: S.J. Sara und D. Lefevre, Paychopharmacologia 25, 32-40 (1972), Hypoxia-induced amnesia in one-trial learning and pharmacological protection by piracetam. Boggan, W.O., und Schlesinger, K., in Behavioral Biology 12, 127-134 (1974)."}, "[2]": {"assay": "Step-down Passive Avoidance Test (Mondadori and Waser): memory improvement", "type": "in vivo", "conditions": "for Gedächtnisverbesserung: significance by Mann-Whitney U test; for Dosis, um die gedächtnisverbessernde Wirkung von 0,1 mg/kg i.p. von 1-[2-(Indol-3-yl)ethyl]-1,2,5,6,-tetrahydro-pyridin-3-carbonsauremethylester zu erzielen / Dosis relativ zu 1-[2-(Indol-3-yl)ethyl]-1,2,5,6,-tetrahydro-pyridin-3-carbonsauremethylester für gleiche gedächtnisverbessernde Wirkung: i.p.; for Dosis relativ zu 1-[2-(Indol-3-yl)ethyl]-1,2,5,6,-tetrahydro-pyridin-3-carbonsauremethylester für gleiche gedächtnisverbessernde Wirkung: 10 mg/kg versus 0,1 mg/kg", "procedure": "Insbesondere zeigen die Verbindungen der Formel I eine starke gedächtnisverbessernde Wirkung im Step-down Passive Avoidance Test nach Mondadori und Waser, Psychopharmacology 63, 297-300 (1979). Die Substanzen sind wirksam bei intraperitonealer Gabe 30 Minuten vor dem Lernversuch (wirksame Dosen 0,1, 1, 10 mg/kg). Eine deutliche Wirkung war auch feststellbar bei peroraler Applikation 60 Minuten vor dem Lernversuch (wirksame Dosen 0,1, 1, 10 mg/kg) sowie bei intraperitonealer Applikation unmittelbar nach dem Lernversuch (wirksame Dosen 0,1, 1, 10 mg/kg). […] Daraus ergibt sich, dass, um die gedächtnisverbessernde Wirkung von 0,1 mg/kg i.p. von 1-[2-(Indol-3-yl)ethyl]-1,2,5,6,-tetrahydro-pyridin-3-carbonsauremethylester zu erzielen, 10 mg/kg i.p., d.h. die 100-fache Dosis eines Isomeren A, B und C benötigt werden. Die Signifikanzangaben beziehen sich, ebenso wie im vorhergehenden Absatz, auf den U-Test von Mann und Whitney."}},
  "data": [
    {"smiles": "NC(=O)CN1CCCC1=O", "note": "[Piracetam]", "values": [
      {"measurement": "nootrop wirksame Dosis", "setting": "[1]; Maus, i.p., reference", "result": 100, "unit": "mg/kg"}
    ]},
    {"smiles": "COC(=O)C1=CCN(CCc2c[nH]c3ccccc23)CC1", "note": "[Isomere C, 1-[2-(Indol-3-yl)ethyl]-1,2,5,6-tetrahydro-pyridin-4-carbonsäuremethylester]", "values": [
      {"measurement": "antiamnesiogener Effekt", "setting": "[1]; 0,1 mg/kg i.p.", "result": "keine signifikante antiamnesiogene Wirkung"},
      {"measurement": "antiamnesiogener Effekt", "setting": "[1]; 10 mg/kg i.p.", "result": "keine signifikante antiamnesiogene Wirkung"},
      {"measurement": "antiamnesiogener Effekt", "setting": "[1]; 1,0 mg/kg i.p.", "result": "keine signifikante antiamnesiogene Wirkung"},
      {"measurement": "Gedächtnisverbesserung", "setting": "[2]; 0,1 mg/kg i.p.", "result": "keinen"},
      {"measurement": "Gedächtnisverbesserung", "setting": "[2]; 10 mg/kg i.p.", "result": "signifikanten (p<0,05) Effekt"},
      {"measurement": "Gedächtnisverbesserung", "setting": "[2]; 1,0 mg/kg i.p.", "result": "keinen"},
      {"measurement": "Dosis, um die gedächtnisverbessernde Wirkung von 0,1 mg/kg i.p. von 1-[2-(Indol-3-yl)ethyl]-1,2,5,6,-tetrahydro-pyridin-3-carbonsauremethylester zu erzielen", "setting": "[2]", "result": 10, "unit": "mg/kg"},
      {"measurement": "Dosis relativ zu 1-[2-(Indol-3-yl)ethyl]-1,2,5,6,-tetrahydro-pyridin-3-carbonsauremethylester für gleiche gedächtnisverbessernde Wirkung", "setting": "[2]", "result": "100 -fache Dosis"}
    ]},
    {"smiles": "CCOC(=O)C1=CCCN(Cc2c[nH]c3ccccc23)C1", "note": "[Isomere B, 1-(Indol-3-yl)methyl-l,2,5,6-tetrahydro-pyridin-3-carbonsäureethylester]", "values": [
      {"measurement": "antiamnesiogener Effekt", "setting": "[1]; 0,1 mg/kg i.p.", "result": "ähnlichen, jedoch weniger signifikanten (p<0,05) Effekt"},
      {"measurement": "antiamnesiogener Effekt", "setting": "[1]; 10 mg/kg i.p.", "result": "ähnlichen, jedoch weniger signifikanten (p<0,05) Effekt"},
      {"measurement": "antiamnesiogener Effekt", "setting": "[1]; 1,0 mg/kg i.p.", "result": "ähnlichen, jedoch weniger signifikanten (p<0,05) Effekt"},
      {"measurement": "Gedächtnisverbesserung", "setting": "[2]; 0,1 mg/kg i.p.", "result": "keinen"},
      {"measurement": "Gedächtnisverbesserung", "setting": "[2]; 10 mg/kg i.p.", "result": "signifikanten (p<0,05) Effekt"},
      {"measurement": "Gedächtnisverbesserung", "setting": "[2]; 1,0 mg/kg i.p.", "result": "keinen"},
      {"measurement": "Dosis, um die gedächtnisverbessernde Wirkung von 0,1 mg/kg i.p. von 1-[2-(Indol-3-yl)ethyl]-1,2,5,6,-tetrahydro-pyridin-3-carbonsauremethylester zu erzielen", "setting": "[2]", "result": 10, "unit": "mg/kg"},
      {"measurement": "Dosis relativ zu 1-[2-(Indol-3-yl)ethyl]-1,2,5,6,-tetrahydro-pyridin-3-carbonsauremethylester für gleiche gedächtnisverbessernde Wirkung", "setting": "[2]", "result": "100 -fache Dosis"}
    ]},
    {"smiles": "COC(=O)C1=CCCN(CCc2c[nH]c3ccccc23)C1", "note": "[1-[2-(Indol-3-yl)ethyl]-1,2,5,6-tetrahydro-pyridin-3-carbonsäuremethylester]", "values": [
      {"measurement": "antiamnesiogener Effekt", "setting": "[1]; 0,1 mg/kg i.p.", "result": "hochsignifikanten (p<0,01) antiamnesiogenen Effekt"},
      {"measurement": "antiamnesiogener Effekt", "setting": "[1]; 1,0 mg/kg i.p.", "result": "hochsignifikanten (p<0,01) antiamnesiogenen Effekt"},
      {"measurement": "Gedächtnisverbesserung", "setting": "[2]; 0,1 mg/kg i.p.", "result": "signifikante (p<0,05)"},
      {"measurement": "Gedächtnisverbesserung", "setting": "[2]; 10 mg/kg i.p.", "result": "hochsignifikante (p<0,01)"},
      {"measurement": "Gedächtnisverbesserung", "setting": "[2]; 1,0 mg/kg i.p.", "result": "signifikante (p<0,05)"}
    ]},
    {"smiles": "COC(=O)C1=CN(CCc2c[nH]c3ccccc23)CCC1", "note": "[Isomere A, 1-(2-(Indol-3-yl)-ethyl]-1,4,5,6-tetrahydro-pyridin-3-carbonsäuremethylester]", "values": [
      {"measurement": "antiamnesiogener Effekt", "setting": "[1]; 0,1 mg/kg i.p.", "result": "keinen signifikanten"},
      {"measurement": "antiamnesiogener Effekt", "setting": "[1]; 10 mg/kg i.p.", "result": "keinen signifikanten"},
      {"measurement": "antiamnesiogener Effekt", "setting": "[1]; 1,0 mg/kg i.p.", "result": "gewissen (nur einseitig signifikanten)"},
      {"measurement": "Gedächtnisverbesserung", "setting": "[2]; 0,1 mg/kg i.p.", "result": "keinen"},
      {"measurement": "Gedächtnisverbesserung", "setting": "[2]; 10 mg/kg i.p.", "result": "signifikanten (p<0,05) Effekt"},
      {"measurement": "Gedächtnisverbesserung", "setting": "[2]; 1,0 mg/kg i.p.", "result": "keinen"},
      {"measurement": "Dosis, um die gedächtnisverbessernde Wirkung von 0,1 mg/kg i.p. von 1-[2-(Indol-3-yl)ethyl]-1,2,5,6,-tetrahydro-pyridin-3-carbonsauremethylester zu erzielen", "setting": "[2]", "result": 10, "unit": "mg/kg"},
      {"measurement": "Dosis relativ zu 1-[2-(Indol-3-yl)ethyl]-1,2,5,6,-tetrahydro-pyridin-3-carbonsauremethylester für gleiche gedächtnisverbessernde Wirkung", "setting": "[2]", "result": "100 -fache Dosis"}
    ]}
  ]
}
